This passage reports MIC results from DBAASP.

Values after ≈ are worked out from the molar mass of the structure shown. Values joined by “and” are separate entries in the source; they are usually repeats but may differ in a detail not shown here. Identical values can stand only once.

Holding throughout (experiment): ≥ marks a high value that may be exact or a test limit, other limits are often not marked, values filed in µg/mL are converted to µM
Assay [1] deals with Escherichia coli B.
Assay [2] concerns Micrococcus luteus CCM 144.
For assay [3], the system named is Bacillus subtilis 168.
Assay [4] has as its system Staphylococcus aureus.
Assay [5] concerns Candida albicans F7-39/IDE99.
Assay [6] concerns Pseudomonas aeruginosa.
Assay [7] deals with Salmonella typhimurium C610.
Assay [8] concerns Staphylococcus epidermidis C621.
The subject of assay [9] is Bacillus subtilis C971.
Assay [10] concerns Staphylococcus aureus SAP 0017.
Assay [11] concerns Pseudomonas aeruginosa H187.
Assay [12] concerns Staphylococcus aureus ATCC 25923.
Assay [13] has as its system Escherichia coli UB1005.
Assay [14] has as its system Escherichia coli DC2.
The test system of assay [15] is Corynebacterium xerosis C875.
Assay [16] deals with Enterococcus faecalis C625.
Assay [17] deals with Pseudomonas aeruginosa H188.
Assay [18] has as its system Salmonella typhimurium C587.
For assay [19], the system named is Listeria innocua.
Assay [20] deals with Escherichia coli.
The test system of assay [21] is Salmonella enterica subsp. enterica serovar Enteritidis.
In assay [22] the test system is Micrococcus luteus A270.
Assay [23] deals with Pseudomonas aeruginosa ATCC 27853.
In assay [24] the test system is Staphylococcus epidermidis ATCC 12228.
The subject of assay [25] is Escherichia coli ATCC 25922.
Assay [26] relates to Staphylococcus aureus IAM 1011.
In assay [27] the test system is Aeromonas salmonicida NCIMB 1102.
Assay [28] relates to Shewanella putrefaciens IAM 1509.
Assay [29] concerns Photobacterium damselae subsp. piscicida Sp 9587.
Assay [30] has as its system Vibrio parahaemolyticus Vp+1.
Assay [31] deals with Escherichia coli JCM 1649.
In assay [32] the test system is Bacillus subtilis IAM 1026.
Assay [33] concerns Salmonella typhimurium.
Assay [34] concerns Vibrio anguillarum NCIMB 829.

Broadly, the MIC is the lowest concentration that inhibits growth of the organism. Consider `CC[C@H](C)[C@H](NC(=O)[C@H](C)NC(=O)CNC(=O)[C@H](Cc1c[nH]c2ccccc12)NC(=O)[C@H](CC(N)=O)NC(=O)[C@@H](N)CCCCN)C(=O)N[C@@H](CC(C)C)C(=O)N[C@@H](CCCCN)C(=O)N[C@@H](Cc1cnc[nH]1)C(=O)N[C@H](C(=O)N[C@H](C(=O)N[C@@H](CCCCN)C(N)=O)[C@@H](C)CC)[C@@H](C)CC` [KNWGAILKHIIK], for which the MIC was determined as 17.1 µM (≈ 24.3 µg/mL) in [1]; 9 µM (≈ 12.8 µg/mL) in assay [2]; 5.8 µM (≈ 8.23 µg/mL) in assay [3]; 100 µM (≈ 142 µg/mL) in [4]; 9.8 µM (≈ 13.9 µg/mL) in [5]; 83.3 µM (≈ 118 µg/mL) in assay [6].

Consider `CC[C@H](C)[C@H](NC(=O)[C@H](C)NC(=O)[C@H](CCCCN)NC(=O)[C@H](CC(C)C)NC(=O)[C@H](C)NC(=O)[C@@H](NC(=O)[C@H](Cc1cnc[nH]1)NC(=O)[C@H](CC(C)C)NC(=O)[C@@H](NC(=O)[C@@H](NC(=O)[C@H](CCCCN)NC(=O)[C@@H](NC(=O)[C@H](C)NC(=O)[C@H](CCCCN)NC(=O)[C@H](CCCCN)NC(=O)[C@H](Cc1ccccc1)NC(=O)[C@@H](NC(=O)[C@H](CCCCN)NC(=O)[C@H](CC(C)C)NC(=O)[C@H](Cc1ccccc1)NC(=O)[C@H](CO)NC(=O)[C@H](CCCCN)NC(=O)[C@H](Cc1c[nH]c2ccccc12)NC(=O)[C@H](CCCCN)NC(C)=O)[C@@H](C)O)C(C)C)[C@@H](C)O)C(C)C)[C@@H](C)O)C(=O)N[C@@H](CO)C(=O)N[C@@H](CO)C(N)=O` [KWKSFLKTFKKAVKTVLHTALKAISS], for which the MIC worked out at 2.7 µM (≈ 8.11 µg/mL) in assay [7]; 2.16 µM (≈ 6.49 µg/mL) in [8]; 1.08 µM (≈ 3.24 µg/mL) in assay [9]; 5.4 µM (≈ 16.2 µg/mL) in [10]; 8.58 µM (≈ 25.8 µg/mL) in [11]; 10.8 µM (≈ 32.4 µg/mL) in [12]. Besides, the MIC in assay [13] was 3.41 µM (≈ 10.2 µg/mL); in assay [14], 1.35 µM (≈ 4.06 µg/mL); in [15], 1.35 µM (≈ 4.06 µg/mL); in assay [16] it was 10.8 µM (≈ 32.4 µg/mL); in assay [17], 10.8 µM (≈ 32.4 µg/mL); in [18], 8.58 µM (≈ 25.8 µg/mL).

On to `C[C@@H](O)[C@H](NC(=O)[C@H](CCCCN)NC(=O)[C@@H](NC(=O)[C@@H](NC(=O)[C@@H]1CCCN1C(=O)[C@@H](N)Cc1ccccc1)[C@@H](C)O)[C@@H](C)O)C(=O)N[C@@H](Cc1ccc(O)cc1)C(=O)N[C@@H](Cc1ccccc1)C(=O)N1CCC[C@H]1C(=O)N[C@@H](Cc1cnc[nH]1)C(=O)O` [FPTTKTYFPH], for which the MIC turned out to be 1 µM (≈ 1.24 µg/mL) in assay [19], 9 µM (≈ 11.1 µg/mL) in [20], 9 µM (≈ 11.1 µg/mL) in assay [21] and 1 µM (≈ 1.24 µg/mL) in assay [22].

Regarding `CC(C)C[C@H](NC(=O)[C@@H](N)C(C)C)C(=O)N[C@@H](CO)C(=O)N[C@@H](C)C(=O)N[C@@H](C)C(=O)N[C@@H](CC(=O)O)C(=O)N[C@@H](CCCCN)C(=O)NCC(=O)N[C@@H](CC(N)=O)C(=O)N[C@H](C(=O)N[C@@H](CCCCN)C(=O)N[C@@H](C)C(=O)N[C@@H](C)C(=O)N[C@@H](Cc1c[nH]c2ccccc12)C(=O)NCC(=O)N[C@@H](CCCCN)C(=O)N[C@H](C(=O)NCC(=O)NCC(=O)N[C@@H](Cc1cnc[nH]1)C(=O)N[C@@H](C)C(=O)N[C@@H](C)C(=O)N[C@@H](CCC(=O)O)C(=O)N[C@@H](Cc1ccc(O)cc1)C(=O)NCC(=O)N[C@@H](C)C(=O)N[C@@H](CCC(=O)O)C(=O)O)C(C)C)C(C)C` [VLSAADKGNVKAAWGKVGGHAAEYGAE], the MIC in assay [19] was 27 µM (≈ 71.7 µg/mL); in assay [20], 54 µM (≈ 143 µg/mL); in assay [21], no less than 38 µM; in assay [22] it was no less than 38 µM.

For `CC[C@H](C)[C@H](NC(=O)[C@H](C)NC(=O)[C@H](CCCCN)NC(=O)[C@H](CC(C)C)NC(=O)[C@H](C)NC(=O)[C@@H](NC(=O)[C@H](Cc1cnc[nH]1)NC(=O)[C@H](CC(C)C)NC(=O)[C@@H](NC(=O)[C@@H](NC(=O)[C@H](CCCCN)NC(=O)[C@H](CC(C)C)NC(=O)[C@H](C)NC(=O)[C@H](CO)NC(=O)[C@H](CCCCN)NC(=O)[C@H](Cc1ccccc1)NC(=O)[C@@H](NC(=O)[C@H](CCCCN)NC(=O)[C@H](CC(C)C)NC(=O)[C@H](Cc1ccccc1)NC(=O)[C@H](CO)NC(=O)[C@H](CCCCN)NC(=O)[C@H](Cc1c[nH]c2ccccc12)NC(=O)[C@H](CCCCN)NC(C)=O)[C@@H](C)O)[C@@H](C)O)C(C)C)[C@@H](C)O)C(=O)N[C@@H](CO)C(=O)N[C@@H](CO)C(N)=O` [KWKSFLKTFKSALKTVLHTALKAISS], the MIC in [7] was found to be 3.44 µM (≈ 10.2 µg/mL); in assay [8], 2.73 µM (≈ 8.11 µg/mL); in [9] it was 1.09 µM (≈ 3.24 µg/mL); in assay [23], 8 µM (≈ 23.8 µg/mL); in assay [10], 8.66 µM (≈ 25.8 µg/mL); in [11] it was 4.33 µM (≈ 12.9 µg/mL). Moreover, the MIC is 10.9 µM and 8 µM in assay [12]; 2.18 µM (≈ 6.49 µg/mL) in [13]; 2 µM (≈ 5.95 µg/mL) in [24]; 1.7 µM (≈ 5.07 µg/mL) in assay [14]; 0.852 µM (≈ 2.53 µg/mL) in assay [15]; 10.9 µM (≈ 32.4 µg/mL) in assay [16]. Further, the MIC worked out at 4 µM (≈ 11.9 µg/mL) in [25], 10.9 µM (≈ 32.4 µg/mL) in [17] and 10.9 µM (≈ 32.4 µg/mL) in assay [18].

Turning to `CC[C@H](C)[C@H](N)C(=O)NCC(=O)NCC(=O)N[C@H](C(=O)N[C@H](C(=O)N[C@@H](CO)C(=O)N[C@@H](Cc1ccccc1)C(=O)N[C@@H](Cc1ccccc1)C(=O)N[C@@H](CCCCN)C(=O)N[C@@H](CCCN=C(N)N)C(=O)N[C@@H](CC(C)C)C(=O)N[C@@H](Cc1ccccc1)C(=O)O)[C@@H](C)CC)[C@@H](C)CC` [IGGIISFFKRLF], the MIC in [26] was 4.47 µM (≈ 6.25 µg/mL); in assay [27] it was 17.9 µM (≈ 25 µg/mL); in [28] it was 2.24 µM (≈ 3.13 µg/mL); in assay [29], 4.47 µM (≈ 6.25 µg/mL); in assay [30], 8.94 µM (≈ 12.5 µg/mL); in [31], 8.94 µM (≈ 12.5 µg/mL). Also, the MIC in assay [32] turned out to be 4.47 µM (≈ 6.25 µg/mL); in assay [33], 8.94 µM (≈ 12.5 µg/mL); in [34], 4.47 µM (≈ 6.25 µg/mL).
